What all share (assay type): biochemical
Holding throughout (settings): for IC50: Table 2

The target of one assay is hCA I (Homo sapiens, UniProt P00915). The assay can be described thus: hCA I esterase activity inhibition (Verpoorte method, p-nitrophenylacetate). As to the method: (§1) The activities of the CA isoenzymes were measured in accordance with Verpoorte et al.’s previously described methodology. […] There was 400 µL of Tris–HCl buffer (pH 7.4), 360 µL of PNA (3.0 mM), 220 µL of H2O, and 20 µL of purified hCA isoenzyme in the reaction mixture. The identical cuvette was prepared without the enzyme in order to obtain a control measurement. The standard protein was bovine serum albumin.
hCA I, sequence (P00915 whole entry): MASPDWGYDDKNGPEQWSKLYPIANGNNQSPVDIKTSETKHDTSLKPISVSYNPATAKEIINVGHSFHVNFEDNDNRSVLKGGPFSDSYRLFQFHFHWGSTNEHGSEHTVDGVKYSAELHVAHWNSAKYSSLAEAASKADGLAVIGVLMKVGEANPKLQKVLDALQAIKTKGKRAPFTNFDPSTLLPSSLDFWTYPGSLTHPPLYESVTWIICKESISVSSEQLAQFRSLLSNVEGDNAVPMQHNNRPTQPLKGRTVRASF
(§2) To determine the IC50 values of the tested compounds, enzyme activity measurements were conducted at five to six different inhibitor concentrations. Percent activity values were calculated for each dose, taking into account the compounds’ molecular weights and dilution factors.
(§3) The IC50 study was completed prior to the Kᵢ determination. For the Kᵢ analysis, three selected concentrations of each inhibitor were used alongside a control (uninhibited) reaction.
(§4) Kᵢ values and standard deviations were calculated based on the type of inhibition (competitive or non-competitive), as inferred from the intersection pattern of the Lineweaver–Burk lines. These kinetic parameters allowed for further insight into the binding affinities and inhibition mechanisms of the compounds.

The target of another assay is hCA II (Homo sapiens, UniProt P00918). The assay can be described thus: hCA II esterase activity inhibition (Verpoorte method, p-nitrophenylacetate). On the procedure:
as §1, §2
The IC50 study was completed prior to the Kᵢ determination. For the Kᵢ analysis, three selected concentrations of each inhibitor were used alongside a control (uninhibited) reaction. Enzyme activity data were converted to 1/V values and plotted against 1/[S] to generate Lineweaver–Burk plots.
as §4

The target of the next assay is T1, AChE (Electrophorus electricus, UniProt O42275).
T1 construct: purchased Sigma-Aldrich Chemie, St. Louis, MO, USA C2888-500UN
T1 sequence (O42275 24-633): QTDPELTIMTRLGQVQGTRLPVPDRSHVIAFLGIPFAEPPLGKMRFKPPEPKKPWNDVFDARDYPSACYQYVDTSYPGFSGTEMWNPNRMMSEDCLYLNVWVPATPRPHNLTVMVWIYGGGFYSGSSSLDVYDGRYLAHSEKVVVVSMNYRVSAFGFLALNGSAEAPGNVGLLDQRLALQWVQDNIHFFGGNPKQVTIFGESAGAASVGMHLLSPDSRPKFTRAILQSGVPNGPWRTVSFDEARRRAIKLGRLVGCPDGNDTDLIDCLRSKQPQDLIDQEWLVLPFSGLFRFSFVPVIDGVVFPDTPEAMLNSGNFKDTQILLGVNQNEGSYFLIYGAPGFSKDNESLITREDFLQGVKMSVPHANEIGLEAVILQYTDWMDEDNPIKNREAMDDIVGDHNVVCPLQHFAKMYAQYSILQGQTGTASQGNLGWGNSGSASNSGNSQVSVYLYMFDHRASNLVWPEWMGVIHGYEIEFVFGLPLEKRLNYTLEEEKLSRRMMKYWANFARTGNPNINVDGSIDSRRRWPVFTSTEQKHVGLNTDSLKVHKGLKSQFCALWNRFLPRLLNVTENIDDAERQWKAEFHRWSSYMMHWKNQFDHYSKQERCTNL
Briefly: biochemical. On the procedure:
(§5) The previously published Ellman’s technique was used to measure the BChE and AChE activities. AChE (C2888-500UN) from Electrophorus electricus and BChE (C1057-1KU), extracted from equine serum, were both obtained from Sigma-Aldrich Chemie, St. Louis, MO, USA. The BChE/AChE activities were measured using 5,5′-dithiobis(2-nitrobenzoic acid) (DTNB) and butyrylthiocholine iodide (BChI)/[…] (AChI). In short, […] of the sample solutions with varying concentrations was dissolved in deionized water along with 100 µL of buffer (Tris–HCl, 1.0 M, pH 8.0). […] A fraction of DTNB (50 µL, 0.5 mM) was added following incubation. Finally, 50 µL of BChI/AChI (10/10 mM) was added to initiate the reaction. […] All enzymatic activity determination solutions, except AChE/BChE, were included in the negative control.
as §2, §3, §4

The next assay deals with T2, BChE (Equus caballus, UniProt P81908).
T2 construct: BChE (C1057-1KU), extracted from equine serum; purchased Sigma-Aldrich Chemie, St. Louis, MO, USA C1057-1KU; host or cells: equine serum
T2 sequence (P81908 whole entry): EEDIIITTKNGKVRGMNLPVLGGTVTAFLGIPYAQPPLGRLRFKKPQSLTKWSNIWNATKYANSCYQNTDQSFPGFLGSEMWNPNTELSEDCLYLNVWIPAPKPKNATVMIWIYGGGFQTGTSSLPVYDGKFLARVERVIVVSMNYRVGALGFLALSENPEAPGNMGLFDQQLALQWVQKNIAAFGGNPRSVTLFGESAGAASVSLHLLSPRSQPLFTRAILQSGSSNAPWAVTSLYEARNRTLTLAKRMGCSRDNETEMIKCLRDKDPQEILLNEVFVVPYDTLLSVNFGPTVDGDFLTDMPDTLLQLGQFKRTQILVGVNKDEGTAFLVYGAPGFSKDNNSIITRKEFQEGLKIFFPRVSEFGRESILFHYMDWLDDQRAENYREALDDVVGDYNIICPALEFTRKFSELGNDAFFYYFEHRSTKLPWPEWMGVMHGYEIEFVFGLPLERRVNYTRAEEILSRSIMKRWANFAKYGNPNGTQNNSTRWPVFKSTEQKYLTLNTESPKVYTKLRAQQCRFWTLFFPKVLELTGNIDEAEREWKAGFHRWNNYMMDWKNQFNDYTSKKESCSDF
Briefly: biochemical. As to the method:
as §5, §2, §3, §4

For orientation: Ki means the dissociation constant of the complex between target and ligand, obtained from inhibition or displacement. High values mean weaker binding, low ones tighter binding. By IC50 is commonly meant the concentration that inhibits the measured activity by half. Low readings indicate greater potency in that assay, high ones weaker potency in that assay.

As to `COc1ccc(C(=O)/C=C/c2c(-c3ccccc3)nc3sc(SCc4ccccc4)nn23)cc1` [8a, (E)-3-(2-(Benzylthio)-6-phenylimidazo[2,1-b][1,3,4]thiadiazol-5-yl)-1-(4-methoxyphenyl)prop-2-en-1-one], the Ki is 81.2 ± 4.36 nM at hCA I (Lineweaver-Burk plots), 49.3 ± 5.03 nM at hCA II (Lineweaver-Burk plots), 3.86 ± 0.2 nM at AChE (Lineweaver-Burk plots) and 1.01 ± 0.08 nM on BChE (Lineweaver-Burk plots). Further, the IC50 at hCA I is 73 nM; against hCA II it was 41.1 nM; against AChE, 4.36 nM; at BChE, 1.37 nM. Also, the “inhibition type, AChE” value on AChE (Lineweaver-Burk plots) is “competitive”. On BChE (Lineweaver-Burk plots), the “inhibition type, BChE” value is “competitive”.
On to `O=C(/C=C/c1c(-c2ccccc2)nc2sc(SCc3ccc(F)cc3)nn12)c1ccc(Cl)cc1` [8d, (E)-1-(4-Chlorophenyl)-3-(2-((4-fluorobenzyl)thio)-6-phenylimidazo[2,1-b][1,3,4]thiadiazol-5-yl)prop-2-en-1-one], for which the Ki was determined as 45.1 ± 3.91 nM on hCA I (Lineweaver-Burk plots), 39.6 ± 4.91 nM on hCA II (Lineweaver-Burk plots), 7.98 ± 0.6 nM at AChE (Lineweaver-Burk plots) and 1.78 ± 0.12 nM on BChE (Lineweaver-Burk plots). On hCA I (Lineweaver-Burk plots), the “inhibition type, hCA I” value was “non-competitive”. Besides, the IC50 came to 39.1 nM at hCA I, 34.1 nM on hCA II, 9.3 nM against AChE and 1.98 nM against BChE.
As for `COc1ccc(C(=O)/C=C/c2c(-c3ccccc3)nc3sc(SCc4ccc(F)cc4)nn23)cc1` [8c, (E)-3-(2-((4-Fluorobenzyl)thio)-6-phenylimidazo[2,1-b][1,3,4]thiadiazol-5-yl)-1-(4-methoxyphenyl)prop-2-en-1-one], the Ki came out at 36.1 ± 5.36 nM at hCA II (Lineweaver-Burk plots), 11.3 ± 1.02 nM at AChE (Lineweaver-Burk plots) and 1.56 ± 0.06 nM on BChE (Lineweaver-Burk plots). For the same molecule, the “inhibition type, hCA II” value against hCA II (Lineweaver-Burk plots) is recorded as “non-competitive”. Besides, the IC50 against hCA II was 30.2 nM; at AChE, 13 nM; on BChE, 2.03 nM.
Turning to `O=C(/C=C/c1c(-c2ccccc2)nc2sc(SCc3ccccc3)nn12)c1ccc(Cl)cc1` [8b, (E)-3-(2-(Benzylthio)-6-phenylimidazo[2,1-b][1,3,4]thiadiazol-5-yl)-1-(4-chlorophenyl)prop-2-en-1-one], the Ki was 78 ± 5.48 nM on hCA I (Lineweaver-Burk plots), 52.5 ± 6.24 nM on hCA II (Lineweaver-Burk plots), 6.01 ± 0.35 nM at AChE (Lineweaver-Burk plots) and 1.7 ± 0.1 nM on BChE (Lineweaver-Burk plots). In addition, the IC50 against hCA I is 64.4 nM; at hCA II it was 49.3 nM; on AChE, 6.77 nM; against BChE, 1.95 nM.

These data come from article PMC12300381, “Synthesis, Biological Evaluation, and In Silico Characterization of Novel Imidazothiadiazole–Chalcone Hybrids as Multi-Target Enzyme Inhibitors” (Pharmaceuticals, 2025).
